Drawing on patent US10501421B1, “Substituted benzimidazoles as modulators of Ras signaling” (VANDERBILT UNIVERSITY, priority 2017, dated 2019), this text covers EC50 and Ki for 18 compounds.

Experiment [1] concerns the target Ras GEF SOS (Son of Sevenless) (Homo sapiens, UniProt Q07889). In words: SOS-mediated nucleotide exchange on Ras (BODIPY-GDP fluorescence). It counts as biochemical. The following applies: SOS-mediated exchange of BODIPY-GDP for GTP on Ras. In outline:
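Ras loaded with BODIPY-GDP was mixed in buffer with test compound, then GTP and SOS. Fluorescence change from labeled GDP/GTP exchange was followed over time, and rates came from single-exponential fits. EC50 came from a four-parameter fit of mean rate against compound concentration.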

A further experiment addresses T1, Son of Sevenless (SOS) (Homo sapiens, UniProt Q07889).
T1 sequence (Q07889 564-1049 limits assumed): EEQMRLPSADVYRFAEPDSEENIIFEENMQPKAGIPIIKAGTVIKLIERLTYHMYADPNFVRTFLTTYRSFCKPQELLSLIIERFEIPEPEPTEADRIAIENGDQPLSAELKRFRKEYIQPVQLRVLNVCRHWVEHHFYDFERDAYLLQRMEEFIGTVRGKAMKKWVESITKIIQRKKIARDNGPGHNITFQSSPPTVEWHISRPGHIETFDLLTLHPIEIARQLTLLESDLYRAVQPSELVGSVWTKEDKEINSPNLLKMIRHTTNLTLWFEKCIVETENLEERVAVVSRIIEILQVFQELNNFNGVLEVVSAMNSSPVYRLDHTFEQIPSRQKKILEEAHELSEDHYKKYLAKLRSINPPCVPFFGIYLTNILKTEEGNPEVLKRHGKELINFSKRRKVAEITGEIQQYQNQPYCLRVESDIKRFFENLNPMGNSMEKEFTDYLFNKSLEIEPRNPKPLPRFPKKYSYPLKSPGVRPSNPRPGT
Put plainly: Binding to SOS, fluorescence polarization anisotropy (FPA) probe displacement. Conditions: displacement of FITC-conjugated probe (Example 285), affinity calculated from IC50. A digest of the protocol:
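A FITC-conjugated probe compound was incubated with SOS in buffer, and its displacement was tracked as a change in fluorescence anisotropy across a test-compound dose range. IC50 came from a four-parameter variable-slope fit, and binding affinity was calculated from it.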

Where a name gives a salt, the structure may show the parent alone.

Chain of Ras GEF SOS (Son of Sevenless) (P01112 1-166 partner limits assumed, one chain of several): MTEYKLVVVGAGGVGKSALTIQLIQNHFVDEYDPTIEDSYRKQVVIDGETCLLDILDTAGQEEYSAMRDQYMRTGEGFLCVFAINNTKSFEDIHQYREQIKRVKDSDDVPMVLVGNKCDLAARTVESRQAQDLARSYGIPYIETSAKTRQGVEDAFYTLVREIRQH

As usually defined, the EC50 is the concentration giving half of the maximal effect. Broadly, the Ki is a measure of affinity in units of concentration, obtained from inhibition or displacement. Compound `Cc1cc(CN(C)C)c2ncn(Cc3ccc(F)c(Cl)c3)c2c1` [Example 145, 1-(1-(3-chloro-4-fluorobenzyl)-6-methyl-1H-benzo[d]imidazol-4-yl)-N,N-dimethylmethanamine trifluoroacetate] came in with an EC50 in experiment [1] of 30000 to 100000 nM. Also, the Ki on Son of Sevenless (SOS) was over 5000 nM.

In turn, `CCNCc1c(C)c(C)cc2c1nc(NCCN)n2Cc1ccc(F)c(Cl)c1` [Example 147, N^1-(1-(3-chloro-4-fluorobenzyl)-4-((ethylamino)methyl)-5,6-dimethyl-1H-benzo[d]imidazol-2-yl)ethane-1,2-diamine trifluoroacetate] showed an EC50 in experiment [1] of under 1000 nM. Moreover, the Ki on Son of Sevenless (SOS) was 1000 to 5000 nM.

On to `CCCN1CC[C@@H](C(=O)c2ccccc2)[C@H]1c1cc(Cl)cc2c1nc(N1CCNCC1)n2Cc1cc(C)c(F)c(C)c1` [Example 148, ((2S,3R)-2-(6-chloro-1-(4-fluoro-3,5-dimethylbenzyl)-2-(piperazin-1-yl)-1H-benzo[d]imidazol-4-yl)-1-propylpyrrolidin-3-yl)(phenyl)methanone trifluoroacetate], for which the half-maximal effective concentration (EC50) in experiment [1] fell in the range of 1000 to 5000 nM. Further, on Son of Sevenless (SOS), the Ki is 500 to 1000 nM.

As for `CC(C)CN1CC[C@@H](C(=O)c2ccccc2)[C@H]1c1cc(Cl)cc2c1nc(N1CCNCC1)n2Cc1ccc(F)c(Cl)c1` [Example 150, ((2S,3R)-2-(6-chloro-1-(3-chloro-4-fluorobenzyl)-2-(piperazin-1-yl)-1H-benzo[d]imidazol-4-yl)-1-isobutylpyrrolidin-3-yl)(phenyl)methanone trifluoroacetate], in experiment [1], the EC50 was 5000 to 30000 nM. On Son of Sevenless (SOS), the Ki was over 5000 nM.

In turn, `CC(C)CN1CC[C@@H](C(=O)c2ccccc2)[C@@H]1c1cc(Cl)cc2c1nc(N1CCNCC1)n2Cc1ccc(F)c(Cl)c1` [Example 151, ((2R,3R)-2-(6-chloro-1-(3-chloro-4-fluorobenzyl)-2-(piperazin-1-yl)-1H-benzo[d]imidazol-4-yl)-1-isobutylpyrrolidin-3-yl)(phenyl)methanone trifluoroacetate] gave an EC50 in experiment [1] of 5000 to 30000 nM. The inhibition constant Ki at Son of Sevenless (SOS) is over 5000 nM.

In experiment [1], `CC(C)N1CC[C@@H](C(=O)c2ccccc2)[C@@H]1c1cc(Cl)cc2c1nc(N1CCNCC1)n2Cc1ccc(F)c(Cl)c1` [Example 153, ((2R,3R)-2-(6-chloro-1-(3-chloro-4-fluorobenzyl)-2-(piperazin-1-yl)-1H-benzo[d]imidazol-4-yl)-1-isopropylpyrrolidin-3-yl)(phenyl)methanone trifluoroacetate] registered an EC50 of 5000 to 30000 nM. Moreover, on Son of Sevenless (SOS), the inhibition constant Ki is over 5000 nM.

On to `Cc1cc(Cn2c(NCCN)nc3c([C@@H](N)c4ccccc4)cc(Cl)cc32)cc(C)c1F` [Example 160, (S)—N^1-(4-(amino(phenyl)methyl)-6-chloro-1-(4-fluoro-3,5-dimethylbenzyl)-1H-benzo[d]imidazol-2-yl)ethane-1,2-diamine trifluoroacetate], for which, in experiment [1], the EC50 was 1000 to 5000 nM. The Ki on Son of Sevenless (SOS) was under 500 nM.

In experiment [1], `C=C[C@@H](N)c1cc(C)cc2c1nc(N1CCNCC1)n2Cc1cc(C)c(F)c(C)c1` [Example 163, (R)-1-(1-(4-fluoro-3,5-dimethylbenzyl)-6-methyl-2-(piperazin-1-yl)-1H-benzo[d]imidazol-4-yl)prop-2-en-1-amine trifluoroacetate] yielded an EC50 of 1000 to 5000 nM. The Ki at Son of Sevenless (SOS) was 500 to 1000 nM.

Turning to `CCC[C@H](N)c1cccc2c1nc(N1CCNCC1)n2Cc1ccc(F)c(Cl)c1` [Example 165, (S)-1-(1-(3-chloro-4-fluorobenzyl)-2-(piperazin-1-yl)-1H-benzo[d]imidazol-4-yl)butan-1-amine trifluoroacetate], the EC50 in experiment [1] was 1000 to 5000 nM. For the same compound, the inhibition constant Ki on Son of Sevenless (SOS) was 1000 to 5000 nM.

For the compound `N[C@H](c1cc(Cl)cc2c1nc(N1CCNCC1)n2Cc1ccc(F)c(Cl)c1)C1CC1` [Example 167, (S)-(6-chloro-1-(3-chloro-4-fluorobenzyl)-2-(piperazin-1-yl)-1H-benzo[d]imidazol-4-yl)(cyclopropyl)methanamine trifluoroacetate], in experiment [1], the EC50 was under 1000 nM. Besides, the Ki at Son of Sevenless (SOS) is 500 to 1000 nM.

Take `COc1ccc(-n2nccc2-c2cc(Cl)cc3c2nc(N2CCNCC2)n3Cc2ccc(F)c(Cl)c2)cc1` [Example 168, 6-chloro-1-(3-chloro-4-fluorobenzyl)-4-(1-(4-methoxyphenyl)-1H-pyrazol-5-yl)-2-(piperazin-1-yl)-1H-benzo[d]imidazole trifluoroacetate]: in experiment [1], the EC50 lay within 1000 to 5000 nM. Also, on Son of Sevenless (SOS), the Ki was 500 to 1000 nM.

`CC(C)c1ccc(-n2nccc2-c2cc(Cl)cc3c2nc(N2CCNCC2)n3Cc2ccc(F)c(Cl)c2)cc1` [Example 169, 6-chloro-1-(3-chloro-4-fluorobenzyl)-4-(1-(4-isopropylphenyl)-1H-pyrazol-5-yl)-2-(piperazin-1-yl)-1H-benzo[d]imidazole trifluoroacetate] registered an EC50 in experiment [1] of 1000 to 5000 nM. In addition, the Ki on Son of Sevenless (SOS) was over 5000 nM.

As to `Cc1cc2c(nc(N3CCNCC3)n2Cc2ccc(F)c(Cl)c2)c(-c2ccnn2-c2ccccc2)c1C` [Example 171, 1-(3-chloro-4-fluorobenzyl)-5,6-dimethyl-4-(1-phenyl-1H-pyrazol-5-yl)-2-(piperazin-1-yl)-1H-benzo[d]imidazole trifluoroacetate], in experiment [1], the EC50 was in the range of 1000 to 5000 nM. Further, the Ki on Son of Sevenless (SOS) is 1000 to 5000 nM.

Turning to `Cc1cc2c(nc(N3CCNCC3)n2Cc2ccc(F)c(Cl)c2)c(-c2ccnn2-c2ccc(Br)cc2)c1C` [Example 172, 4-(1-(4-bromophenyl)-1H-pyrazol-5-yl)-1-(3-chloro-4-fluorobenzyl)-5,6-dimethyl-2-(piperazin-1-yl)-1H-benzo[d]imidazole trifluoroacetate], the EC50 in experiment [1] fell in the range of 1000 to 5000 nM. In addition, on Son of Sevenless (SOS), the Ki is 1000 to 5000 nM.

Turning to `Cc1cc2c(nc(N3CCNCC3)n2Cc2ccc(F)c(Cl)c2)c(-c2ccnn2-c2ccc(C(C)C)cc2)c1C` [Example 173, 1-(3-chloro-4-fluorobenzyl)-4-(1-(4-isopropylphenyl)-1H-pyrazol-5-yl)-5,6-dimethyl-2-(piperazin-1-yl)-1H-benzo[d]imidazole trifluoroacetate], the EC50 in experiment [1] fell in the range of 5000 to 30000 nM. For the same compound, at Son of Sevenless (SOS), the Ki is over 5000 nM.

As to `CC(C)Cn1nccc1-c1cc(Cl)cc2c1nc(N1CCNCC1)n2Cc1ccc(F)c(Cl)c1` [Example 174, 6-chloro-1-(3-chloro-4-fluorobenzyl)-4-(1-isobutyl-1H-pyrazol-5-yl)-2-(piperazin-1-yl)-1H-benzo[d]imidazole trifluoroacetate], the half-maximal effective concentration (EC50) in experiment [1] lay in the range of 1000 to 5000 nM. In addition, the Ki at Son of Sevenless (SOS) is under 500 nM.

On to `CN(C)CCn1nccc1-c1cc(Cl)cc2c1nc(N1CCNCC1)n2Cc1ccc(F)c(Cl)c1` [Example 175, 2-(5-(6-chloro-1-(3-chloro-4-fluorobenzyl)-2-(piperazin-1-yl)-1H-benzo[d]imidazol-4-yl)-1H-pyrazol-1-yl)-N,N-dimethylethan-1-amine trifluoroacetate], for which, in experiment [1], the EC50 was under 1000 nM. Also, on Son of Sevenless (SOS), the Ki was 500 to 1000 nM.

`CC(C)n1nccc1-c1cc(Cl)cc2c1nc(N1CCNCC1)n2Cc1ccc(F)c(Cl)c1` [Example 176, 6-chloro-1-(3-chloro-4-fluorobenzyl)-4-(1-isopropyl-1H-pyrazol-5-yl)-2-(piperazin-1-yl)-1H-benzo[d]imidazole trifluoroacetate] registered an EC50 in experiment [1] of 1000 to 5000 nM. Moreover, at Son of Sevenless (SOS), the Ki was under 500 nM.
